From ChEMBL document CHEMBL1158266, “Cyclopentabenzofuran lignan protein synthesis inhibitors from Aglaia odorata” (J Nat Prod, 1996)
Converted amounts (≈) assume the structure as drawn. The source made the active and inactive calls. No cut-off for these calls is given here.

Legend:
NRK [1] = assay: Inhibition of protein synthesis in rat NRK cells expressing K-ras assessed as L-[4,5-3H]leucine incorporation after 1 hr; type: functional, cell-based
NRK [2] = assay: Inhibition of DNA synthesis in rat NRK cells expressing K-ras assessed as [methyl-3H]thymidine incorporation after 1 hr; type: functional, cell-based
NRK [3] = assay: Inhibition of RNA synthesis in rat NRK cells expressing K-ras assessed as [5-3H]uridine incorporation after 1 hr; type: functional, cell-based
NRK [4] = assay: Decrease in cellular Ras protein level in rat NRK cells expressing K-ras at 2.5 ng/mL after 1 to 3 days by immunoblotting; type: functional, cell-based
NRK [5] = assay: Induction of morphological changes in rat NRK cells expressing K-ras assessed as flat morphology and cytoskeletal organization at 10 to 30 ng/mL after 1 day; type: functional, cell-based
NRK [6] = assay: Induction of morphological changes in rat NRK cells expressing K-ras assessed as flat morphology and cytoskeletal organization at 10 to 30 ng/mL after 3 days; type: functional, cell-based
NRK [7] = assay: Growth inhibition of rat NRK cells expressing K-ras; type: functional, cell-based
NIH3T3 [8] = assay: Growth inhibition of mouse NIH/3T3 cells expressing K-ras; type: functional, cell-based
NIH3T3 [9] = assay: Growth inhibition of mouse NIH/3T3 cells expressing H-ras; type: functional, cell-based
NIH3T3 [10] = assay: Growth inhibition of mouse NIH/3T3 cells expressing N-ras; type: functional, cell-based
NRK [11] = assay: Growth inhibition of rat NRK cells; type: cell-based
[12] = Growth inhibition of mouse NIH/3T3 cells; type: cell-based; settings: NIH3T3
NRK [13] = assay: Induction of morphological changes in rat NRK cells expressing K-ras assessed as flat morphology; type: functional, cell-based
NRK [14] = assay: Induction of morphological changes in rat NRK cells expressing K-ras-ts proto-oncogene assessed as flat morphology; type: functional, cell-based

SMILES: COc1ccc([C@@]23Oc4cc(OC)cc(OC)c4[C@]2(O)[C@H](O)C[C@H]3c2ccccc2)cc1 [ROCAGLAOL]
- Activity (NRK [1]): Active
- Activity (NRK [2]): inactive
- Activity (NRK [3]): inactive
- Activity (NRK [4]): Active
- Activity (NRK [5]): Active
- Activity (NRK [6]): Active
- IC50 (NRK [7]): 5.8 ng/mL (≈ 0.0133 µM)
- IC50 (NIH3T3 [8]): 7 ng/mL (≈ 0.0161 µM)
- IC50 (NIH3T3 [9]): 5.3 ng/mL (≈ 0.0122 µM)
- IC50 (NIH3T3 [10]): 7.5 ng/mL (≈ 0.0173 µM)
- IC50 (NRK [11]): 10 ng/mL (≈ 0.023 µM)
- IC50 [12]: 2 ng/mL (≈ 0.0046 µM)

SMILES: CC[C@@]12C=CCN3CC[C@]4(C(=C(C(=O)OC)C1)Nc1cc5c(cc14)[C@H]1[C@@H](O5)[C@H](O)[C@]4(CC)CC(C(=O)OC)=C5Nc6c(cc(O)c(OC)c6OC)[C@@]56CCN1[C@H]46)[C@H]32
- Activity (NRK [13]): Active
- Activity (NRK [14]): Active

SMILES: COc1c(C=O)c(O)cc2c1C(=O)c1ccccc1C2=O
- Activity (NRK [13]): Active
- Activity (NRK [14]): Active

SMILES: CC[C@@]12CC(C(=O)OC)=C3Nc4cc5c(cc4[C@@]34CCN(C[C@H]3O[C@H]31)[C@@H]24)[C@@H]1[C@H](O5)[C@@H](O)[C@@]2(CC)CC(C(=O)OC)=C3Nc4c(cc(O)c(OC)c4OC)[C@@]34CCN1[C@@H]24
- Activity (NRK [13]): Active
- Activity (NRK [14]): Active

SMILES: COc1ccc([C@@]23Oc4cc(OC)cc(OC)c4[C@]2(O)C2=C(C(=O)N4CCC[C@H]4N2)[C@H]3c2ccccc2)cc1 [AGLAIASTATIN]
- Activity (NRK [1]): Active
- Activity (NRK [2]): inactive
- Activity (NRK [3]): inactive
- Activity (NRK [4]): Active
- Activity (NRK [5]): Active
- Activity (NRK [6]): Active
- IC50 (NRK [7]): 2.8 ng/mL (≈ 0.00532 µM)
- IC50 (NIH3T3 [8]): 5.6 ng/mL (≈ 0.0106 µM)
- IC50 (NIH3T3 [9]): 1 ng/mL (≈ 0.0019 µM)
- IC50 (NIH3T3 [10]): 1.8 ng/mL (≈ 0.00342 µM)
- IC50 (NRK [11]): 2.1 ng/mL (≈ 0.00399 µM)
- IC50 [12]: 4.1 ng/mL (≈ 0.00779 µM)

SMILES: COc1ccc([C@@]23Oc4cc(OC)cc(OC)c4[C@]2(O)c2nc4n(c(=O)c2[C@H]3c2ccccc2)CCC4)cc1
- Activity (NRK [1]): Active
- Activity (NRK [2]): inactive
- Activity (NRK [3]): inactive
- Activity (NRK [4]): Active
- Activity (NRK [5]): Active
- Activity (NRK [6]): Active
- IC50 (NRK [7]): 81 ng/mL (≈ 0.154 µM)
- IC50 (NIH3T3 [8]): 8.9 ng/mL (≈ 0.017 µM)
- IC50 (NIH3T3 [9]): 7.8 ng/mL (≈ 0.0149 µM)
- IC50 (NIH3T3 [10]): 8 ng/mL (≈ 0.0153 µM)
- IC50 (NRK [11]): 9.8 ng/mL (≈ 0.0187 µM)
- IC50 [12]: 7.6 ng/mL (≈ 0.0145 µM)
